This note sets out measurements from patent US4031235A, “Insecticidal substituted acetate compounds” (Sumitomo Chemical Company, Limited, priority 1972, dated 1977).

Series [1] deals with adult mosquitoes (Culex pipiens). Briefly: Knock-down of adult mosquitoes by 0.2% oil preparation (Experimental Example 4). The series is classed as in vivo. To be noted: read-out: mosquitoes knocked down. As to the method: (§1) 0.2% oil preparation was prepared from each of the compounds (1), (2), (8), (14), (22), (25), (26), (27), (51), (62), (73), (82), (86), (88), to (90), (92), (94), (96), (111), (119), (121), (165), (175), (180), (184), (185), (195), (200), (201), and (208) and allethrin as a control using deodorized kerosene.

The test system of series [2] is Larvae of Mosquito (Culex pipiens). Briefly: Insecticidal activity on larvae of mosquito (Experimental Example 2). The series is classed as in vivo. To be noted: 24 h, read-out: LC50 (50% lethal concentration). As to the method:
An emulsifiable concentrate was prepared by blending each of the compounds (1) to (300) of the present invention, xylol and Sorpol SM-200 (trade name; manufactured by Toho Chemical Co., Ltd.) in a proportion of 25%, 50% and 25% (by weight), respectively. 20 to 25 day-old rice plants after seeding were grown in pots and sprayed with each 300-fold dilute solution of the emulsifiable concentrates thus prepared and a 300-fold dilute solution of carbaryl 30% wettable powder diluted with water as a control commercial agent in an amount of 10 ml/pot in each case and then the pots were covered by a cylindrical metal net. 15 small brown planthoppers (Delphacodes striatella Fallen) per group were released in each of the pots treated with carbaryl wettable powder, and compound (1) to (21) and (102) to (110), while 15 green rice leafhopper (Nephotettix bipuntatus cincticeps Uhler) per group were released in each of the pots treated with the carbaryl wettable powder and compounds (22) to (101) and (111) to (300).
Of the emulsifiable concentrates prepared in Experimental Example 1, each of those prepared from the compounds of Table 1 below was diluted with water to each of test concentrations and a 200 ml portion thereof was added to a 300 ml volume beaker. 30 larvae of mosquito per group were released in each of the beaker and allowed to stand for 1 day. Survival was observed and a LC50 (50% lethal concentration) was determined by calculating a percent killing in each case. As a control, lindane emulsifiable concentrate was used.

Series [3] is described as follows: Oral toxicity to mice. The note with it: mouse, in vivo.
For series [4], the system named is oriental house flies. Briefly: Activity on knock-down against oriental house flies (Experimental Example 5). The series is classed as in vivo. To be noted: 0.2% oil preparation, 0.7 ml, 1.5 Kg/cm^2, (70 cm)^3 glass box. As to the method: as §1
20 oriental house flies per group were released in a (70 cm)^3 volume glass box and sprayed with each of the oil preparations prepared in Experimental Example 4 from the compounds of Table 3 below and allethrin in an amount of 0.7 ml under a pressure of 1.5 Kg/cm^2.

For series [5], the system named is oriental house flies. Briefly: Potentiation of insecticidal activity by addition of piperonyl butoxide, topical application (Experimental Example 6). The series is classed as in vivo. The note with it: piperonyl butoxide 5 times active ingredient; acetone solution on thoracic dorsal plate. As to the method:
To each of the compounds (22), (51), (62), (63), (82), (86), (125), (150), (160), (176), (177), (178), (184), (185), (191), (195), (200), (201), (204), (208), (210), (212) and (226) was added piperonyl butoxide in an amount of 5 times that of the active ingredient, respectively to prepare an acetone solution having a given concentration. Each of the thus prepared acetone solutions was applied onto a thoracic dosal plate of oriental house flies using a microshringe to observe a synergestic effect on insecticidal activity by piperonyl butoxide.

The mark [6] stands for this setting: 0.2% oil preparation, 0.7 ml, 1.5 Kg/cm^2, (70 Cm)^3 glass box.

≈ marks a conversion by molar mass, not a printed value. Like-named read-outs stand apart in the source and are kept apart here.

On to `CCC(C(=O)OCc1coc(Cc2ccccc2)c1)c1ccccc1` (stereo not drawn) [compound 1, 5'-Benzyl-3'-furylmethyl-α-ethyl-phenylacetate], for which the pest or weed control at 0.2 % in series [1] (setting [6]) is over 80%. Besides, the LC50 in series [2] amounted to 1.5 ng/mL (≈ 4.49 nM). The LD50 in series [3] was over 1000 mg/kg. Also, the “KT50 (50% knock-down time)” value in series [4] came to 167 s.
Take `CC(C)C(C(=O)OC(C#N)c1cccc(Oc2ccccc2)c1)c1ccc(F)cc1` (stereo not shown) [compound 165]: the pest or weed control at 0.2 % in series [1] (setting [6]) is over 80%. Besides, in series [2], the LC50 worked out at 1.2 ng/mL (≈ 2.97 nM). The “KT50 (50% knock-down time)” value in series [4] stood at 145 s.
As to `CCC(C(=O)OCc1cccc(Oc2ccccc2)c1)c1ccc(OC)cc1` (stereo not drawn) [compound 80, 3'-Phenoxybenzyl-α-ethyl-4-methoxyphenylacetate], in series [3], the 50% lethal dose (LD50) is over 2000 mg/kg.
Take `CCC(C(=O)OCc1cccc(Oc2ccccc2)c1)c1ccc(C)cc1` (stereo not shown) [compound 176]: the “Potentiation magnification of insecticidal activity by the addition of piperonyl butoxide” value (“Potentiation magnification” for short) in series [5] was found to be 5.2. In series [3], this molecule returned an LD50 of over 1000 mg/kg.
`COc1ccc(C(C(=O)OCc2ccc(Oc3ccccc3)o2)C(C)C)cc1` (stereo not drawn) [compound 63, 5'-Phenoxyfurfuryl-α-isopropyl-4-methoxyphenylacetate]: the “Potentiation magnification” value in series [5] came to 4.8. For the same molecule, in series [3], the LD50 is over 1000 mg/kg. The “KT50 (50% knock-down time)” value in series [4] was determined as 140 s.
For the molecule `C#CCc1ccc(C(C#C)OC(=O)C(c2ccc(C)cc2)C(C)C)o1` (stereo not shown) [compound 200], the “Potentiation magnification” value in series [5] was found to be 7.5. Further, the pest or weed control at 0.2 % in series [1] (setting [6]) is over 80%. The “KT50 (50% knock-down time)” value in series [4] is 114 s.
The matching figures for `C#CCc1ccc(C(C#C)OC(=O)C(c2ccc(OC)cc2)C(C)C)o1` (stereo not drawn) [compound 51, 5'-Propargyl-2'-(α'-ethynyl)-furfuryl-α-isopropyl-4-methoxyphenylacetate]: 7.2, over 80% and 104 s.
The matching figures for `CCC(C(=O)OCc1coc(Cc2ccccc2)c1)c1ccc(F)cc1` (stereo not shown) [compound 185]: 5.0, over 80% and 137 s.
The matching figures for `CC(C)C(C(=O)OCc1coc(Cc2ccccc2)c1)c1ccc(F)cc1` (stereo not shown) [compound 208]: 5.2, over 80% and 150 s.
`C=C(C)C(C(=O)OCc1cccc(Oc2ccccc2)c1)c1ccc(C)cc1` (stereo not drawn) [compound 125, 3'-Phenoxybenzyl-α -isopropenyl-4-methylphenylacetate]: the “Potentiation magnification” value in series [5] is recorded as 6.0. Also, the LC50 in series [2] is 3.2 ng/mL (≈ 8.59 nM). The molecule also registered an LD50 in series [3] of 1000 mg/kg.
`CC(C)C(C(=O)OCN1C(=O)c2ccccc2C1=O)c1ccc(Cl)cc1` (stereo not shown) [compound 130] gave an LD50 in series [3] of over 1000 mg/kg.
As to `C=C(C)C(C(=O)OCc1cccc(Oc2ccccc2)c1)c1ccc(OC)cc1` (stereo not drawn) [compound 82, 3'-Phenoxybenzyl-α-isopropenyl-4-methoxyphenylacetate], in series [5], the “Potentiation magnification” value came to 6.7. In addition, the pest or weed control at 0.2 % in series [1] (setting [6]) was over 80%. The median lethal dose (LD50) in series [3] is over 1000 mg/kg. Besides, the “KT50 (50% knock-down time)” value in series [4] was found to be 132 s.
`C=C(C)C(C(=O)OCc1cccc(Oc2ccccc2)c1)c1ccc(F)cc1` (stereo not drawn) [compound 121, 3'-Phenoxybenzyl-α-isopropenyl-4-fluorophenylacetate]: the pest or weed control at 0.2 % in series [1] (setting [6]) was over 80%. For the same molecule, in series [2], the LC50 came out at 3.7 ng/mL (≈ 9.83 nM). In series [4], the “KT50 (50% knock-down time)” value is 130 s.
Take `Cc1ccc(C(C(=O)OCc2cccc(Oc3ccccc3)c2)C(C)C)cc1` (stereo not drawn) [compound 108, 3'-Phenoxybenzyl-α-isopropyl-4-methylphenylacetate]: the LD50 in series [3] is over 1000 mg/kg.
In the case of `COc1ccc(C(C(=O)OCc2coc(Cc3ccccc3)c2)C(C)C)cc1` (stereo not drawn) [compound 22, 5'-Benzyl-3'-furylmethyl-α-isopropyl-4-methoxyphenylacetate], the “Potentiation magnification” value in series [5] turned out to be 5.0. Moreover, the pest or weed control at 0.2 % in series [1] (setting [6]) was over 80%. In series [3], the LD50 is 900 mg/kg. Further, the “KT50 (50% knock-down time)” value in series [4] was determined as 136 s.
In the case of `C=CCC1=C(C)C(OC(=O)C2C(C=C(C)C)C2(C)C)CC1=O` (stereo not shown) [allethrin, reference compound], the pest or weed control at 0.2 % in series [1] is over 80%. For the same molecule, the “KT50 (50% knock-down time)” value in series [4] amounted to 186 s.
Regarding `Cc1ccc(C(C(=O)OCc2ccc(Cc3ccco3)s2)C(C)C)cc1` (stereo not shown) [compound 145], the LC50 in series [2] stood at 3.9 ng/mL (≈ 10.6 nM). In series [3], this molecule registered an LD50 of over 1000 mg/kg.
Molecule `C#CCc1cc(C)c(COC(=O)C(c2ccc(Cl)cc2)C(C)C)c(C)c1` (stereo not shown) [compound 129] had an LD50 in series [3] of over 1000 mg/kg.
In the case of `C#CCc1ccc(C(C#C)OC(=O)C(c2ccc(Cl)cc2)C(C)C)o1` (stereo not shown) [compound 201], in series [5], the “Potentiation magnification” value is reported as 7.0. For the same molecule, the pest or weed control at 0.2 % in series [1] (setting [6]) is over 80%. The “KT50 (50% knock-down time)” value in series [4] was determined as 105 s.
Consider `CCC(C(=O)OCc1cccc(Oc2ccccc2)c1)c1ccccc1` (stereo not drawn) [compound 2, 3'-Phenoxybenzyl-α-ethylphenylacetate], for which, in series [1] (setting [6]), the pest or weed control at 0.2 % was over 80%. Moreover, the LC50 in series [2] worked out at 3.4 ng/mL (≈ 9.81 nM). In addition, the LD50 in series [3] is over 1000 mg/kg.
In the case of `C=C(C)C(C(=O)OCc1cccc(Oc2ccccc2)c1)c1ccc(OC)cc1C` (stereo not drawn) [compound 96, 3'-Phenoxybenzyl-α-isopropenyl-2-methyl-4-methoxyphenylacetate], the pest or weed control at 0.2 % in series [1] (setting [6]) was over 80%. For the same molecule, the “KT50 (50% knock-down time)” value in series [4] stood at 92 s.
For the molecule `CCC(C(=O)OCc1coc(Oc2ccccc2)c1)c1ccc(Cl)cc1` (stereo not shown) [compound 180], the pest or weed control at 0.2 % in series [1] (setting [6]) is over 80%. In addition, in series [2], the LC50 worked out at 7.2 ng/mL (≈ 19.4 nM). For the same molecule, the “KT50 (50% knock-down time)” value in series [4] stood at 157 s.
With `Cc1ccc(C(C(=O)OCc2cc3c(s2)CCCC3)C(C)C)cc1` (stereo not shown) [compound 150], the “Potentiation magnification” value in series [5] was determined as 4.2. The LD50 in series [3] was over 1000 mg/kg.
Take `C=C(C)C(C(=O)OCc1cccc(Oc2ccccc2)c1)c1ccc(Br)cc1` (stereo not drawn) [compound 111, 3'-Phenoxybenzyl-α-isopropenyl-4-bromophenylacetate]: the pest or weed control at 0.2 % in series [1] (setting [6]) is over 80%. Further, in series [2], the LC50 was found to be 2.5 ng/mL (≈ 5.72 nM). The “KT50 (50% knock-down time)” value in series [4] came out at 138 s.
On to `C#CCc1cc(C(C#C)OC(=O)C(CC)c2ccccc2)co1` (stereo not drawn) [compound 8, 5'-Propargyl-α '-ethynyl-3'-furylmethyl-α-ethyl-phenylacetate], for which the pest or weed control at 0.2 % in series [1] (setting [6]) was over 80%. The LD50 in series [3] worked out at 750 mg/kg. Moreover, in series [4], the “KT50 (50% knock-down time)” value turned out to be 128 s.
Regarding `CC(C)C(C(=O)OCc1cccc(Oc2ccccc2)c1)c1ccc(Cl)cc1` (stereo not shown) [compound 206], the “Potentiation magnification” value in series [5] is 5.1. In addition, the LC50 in series [2] turned out to be 3.2 ng/mL (≈ 8.1 nM). Besides, the LD50 in series [3] was over 1000 mg/kg.
Consider `CCC(C(=O)OCc1coc(Cc2ccco2)c1)c1ccc(Br)cc1` (stereo not shown) [compound 175], for which the pest or weed control at 0.2 % in series [1] (setting [6]) was over 80%. Moreover, the “KT50 (50% knock-down time)” value in series [4] was determined as 152 s.
As for `Cc1ccc(C(C(=O)OCc2coc(Oc3ccccc3)c2)C(C)C)cc1` (stereo not shown) [compound 195], the “Potentiation magnification” value in series [5] is 5.7. Besides, the pest or weed control at 0.2 % in series [1] (setting [6]) was over 80%. The “KT50 (50% knock-down time)” value in series [4] was found to be 140 s.

The term LD50 denotes the dose at which mortality reaches 50%. Read a low LD50 as greater toxicity.
